Literature values in patent publication US9827227B2, “Controlled release pharmaceutical formulations of nitazoxanide” (Romark Laboratories L.C., priority 2009, dated 2017).

What was measured:
[1] = after oral administration of nitazoxanide in humans
DNA viruses = conditions: in vitro, in words
hepatitis C virus (HCV) = conditions: in vitro and in clinical trials, in words

O=C(Nc1ncc([N+](=O)[O-])s1)c1ccccc1O [tizoxanide]
half-life in plasma [1]: approximately 1.5 hours
activity against certain DNA viruses (DNA viruses): active
activity against hepatitis C virus (HCV) (hepatitis C virus (HCV)): activity against hepatitis C virus

CC(=O)Oc1ccccc1C(=O)Nc1ncc([N+](=O)[O-])s1 [Nitazoxanide, 2-(acetolyloxy)-N-(5-nitro-2-thiazolyl) benzamide]
activity against certain DNA viruses (DNA viruses): active
activity against hepatitis C virus (HCV) (hepatitis C virus (HCV)): activity against hepatitis C virus
